# US20220062299A1, “USE OF GLUCOCORTICOID STEROIDS IN PREVENTING AND TREATING CONDITIONS OF MUSCLE WASTING, AGING AND METABOLIC DISORDER” (NORTHWESTERN UNIVERSITY, priority 2018, published 2022)
# Experiments:
# Assay type in all cases: in vivo, mouse
# aging Wildtype (WT) mice = test: Aging wildtype mice, 40 weeks weekly prednisone
# Procedure: Dosing of metabolic and endocrine biomarkers. Glycogen was quantitated using the Glycogen Assay Kit (#ab65620; Abcam, Cambridge, Mass.) from approximately 25 mg frozen-pulverized whole tissue, following manufacturer's instructions and internal standards for calculating μg/mg values. For measurement of whole-tissue ATP/NAD^+ levels, approximately 25 mg frozen-pulverized tissue was extracted in 10% perchloric acid and neutralized in 0.75 M K2CO3, as previously described (Ramsey et al., 2009). NAD+ and ATP were measured by high-pressure liquid chromatography (HPLC) with Shimadzu LC-20A pump (Shimadzu Scientific Instr Inc, Addison, Ill.) and UV-VIS detector, using a Supelco LC-18-T column (15 cm×[…]; #58970-U; Millipore-Sigma, St Louis, Mo.). […] ATP and NAD^+ eluted as sharp peaks at 3 and 14 minutes, respectively, and were normalized to tissue weight of frozen liver tissue for calculating pmol/mg values. Corticosterone was measured in mouse serum and cortisol was measured in human serum using dedicated ELISA kits (#ADI-900-097, Enzo Life Science, Farmingdale, N.Y.; #K7430-100, BioVision, Milpitas, Calif.) according to manufacturer's instructions and internal standards to calculate ng/ml values. Insulin levels were quantitated in mouse and human serum with species-specific ELISA kits (#10-1247-01 (mouse-specific); #10-1113-01 (human-specific); Mercodia, Uppsala, Sweden), following manufacturer's instructions and internal standards to calculate ng/ml values. Free fatty acids were quantitated using Enzychrom Free Fatty Acid Assay kit (#EFFA-100; BioAssay Systems, Hayward, Calif.), following kit's instructions and standards to calculate μM (serum) and nmol/mg (tissue) values. For ketone body dosing, beta-hydroxybutyrate was quantitated using a dedicated colorimetric assay kit (#700190; Cayman Chemical, Ann Arbor, Mich.), following manufacturer's instructions and standards to calculate μM (serum) and nmol/mg (tissue) values. […] Colorimetric reactions were quantitated using a Synergy HTX multi-mode plate reader (BioTek®, Winooski, Vt.) and averaging four reads/sample at appropriate wavelengths. […]
# Histology. […] Myofiber/adipocyte CSA quantitation was conducted on 400 myofibers/adipocytes per tissue per mouse. […] Area quantitation was performed by means of ImageJ (Schneider et al., 2012). Sample processing, imaging and CSA quantitation were conducted blinded to treatment groups.
# Muscle function, whole-body plethysmography, echocardiography. Forelimb grip strength was monitored using a meter (Cat #1027SM; Columbus Instruments, Columbus, Ohio) blinded to treatment groups. […]
# [1] = tested on: quadriceps muscle of mdx mice; test: Tissue respirometry on quadriceps muscle; settings: weekly prednisone, opposite to daily dosing
# Procedure: Tissue respirometry. Whole-tissue analysis of basal rates of oxygen consumption (OCR) and extracellular acidification (ECAR) was conducted adapting reported conditions for intact muscle tissue analysis (Shintaku and Guttridge, 2016) to the XF96 Extracellular Flux Analyzer platform (Agilent, Santa Clara, Calif.). Immediately after mouse sacrification, target muscle (quadriceps) tissues were quickly collected, rinsed in clean PBS buffer and dissected into approximately 2×2×2 mm pieces. At least three biopsies were sampled for each tissue. […] Respirometry analysis was then performed on equilibrated tissue biopsies using the following protocol for each basal or post-injection read: 3 min mix, 5 min delay, 2 min measure. Basal rate reads were collected for 6 consecutive times, then drugs were injected and control reads gathered for additional 3 consecutive times. […] Compound concentrations were determined on literature and/or preliminary test assays on wildtype muscle biopsies, and the concentration of the compound when loaded in the cartridge port was 10× in appropriate solvent (typically DMSO or ddH2O). OCR/ECAR reads were averaged for same tissue replicates and subtracted of background noise values (empty wells with only medium and appropriate compound). […]
# [2] = tested on: mdx; Dysf-null; Sgcg-null mice; test: Once-weekly glucocorticoids in three murine models of muscle disease; settings: 1 mg/kg once-weekly, contrary to daily dosing
# From the text: Glucocorticoid steroids are widely prescribed drugs for chronic inflammatory conditions, and their daily intake generally correlates with muscle wasting and weakness, osteoporosis, obesity and metabolic disorders. […] (Quattrocelli et al, J Clin Invest 2017; Quattrocelli et al, Am J Pathol 2017; Quattrocelli et al., JCI Insight. 2019 Dec. 19; 4(24). pii: 132402. doi: 10.1172/jci.insight.132402).
# [3] = aging WT mice, weekly prednisone, 40 weeks
compound,measurement,setting,value
"C[C@]12C=CC(=O)C=C1CC[C@@H]1[C@@H]2C(=O)C[C@@]2(C)[C@H]1CC[C@]2(O)C(=O)CO [prednisone, Prednisone]","grip strength, tetanic and specific force, and muscle mass (myofiber CSA)","aging Wildtype (WT) mice; aged WT mice, weekly prednisone, 40 weeks",improved
same,"levels of ATP, NAD+ and glycogen in muscle and heart tissues","aging Wildtype (WT) mice; aging WT mice, weekly prednisone 1 mg/kg i.p., 40 weeks from the age of 6 weeks",increased
same,parameters of cardiac contractile function (echocardiography),aging Wildtype (WT) mice; [3],improved
same,parameters of respiratory function (whole-body plethysmography),aging Wildtype (WT) mice; [3],improved
same,glucose-fueled lactate production,[1],improved
same,valine-fueled oxygen consumption,[1],improved
same,muscle force and mass,[2],improved
